Drawing on patent US20200325127A1, “PYRIDIN-3-YL ACETIC ACID DERIVATIVES AS INHIBITORS OF HUMAN IMMUNODEFICIENCY VIRUS REPLICATION” (priority 2016, published 2020), this text covers EC50 for 46 molecules.

One assay deals with NL-RLuc virus. In words: Inhibition of HIV replication (NL-RLuc luciferase reporter virus in MT-2 cells). Conditions: Human immunodeficiency virus 1, MT2, 120 h, read-out: Activity. It counts as cell-based. From the text: Inhibition of HIV replication: A recombinant NL-RLuc proviral clone was constructed in which a section of the nef gene from NL4-3 was replaced with the Renilla Luciferase gene. This virus is fully infectious and can undergo multiple cycles of replication in cell culture. In addition, the luciferous reporter provides a simple and easy method for quantitating the extent of virus growth and consequently, the antiviral activity of test compounds. The plasmid pNLRLuc contains the proviral NL-Rluc DNA cloned into pUC18 at the PvuII site. The NL-RLuc virus was prepared by transfection of 293T cells with the plasmid pNLRLuc. Transfections were performed using the LipofectAMINE PLUS kit from Invitrogen (Carlsbad, Calif.) according to the manufacturer and the virus generated was titered in MT-2 cells. For susceptibility analyses, the titrated virus was used to infect MT-2 cells in the presence of compound, and after 5 days of incubation, cells were processed and quantitated for virus growth by the amount of expressed luciferase. Assay media was RPMI 1640 supplemented with 10% heat inactivated fetal bovine serum (FBS), 100 units/ml penicillin G/100 units/ml streptomycin, 10 mM HEPES buffer pH 7.55 and 2 mM L-glutamine. The results from at least 2 experiments were used to calculate the EC50 values. Luciferase was quantitated using the Dual Luciferase kit from Promega (Madison, Wis.). Susceptibility of viruses to compounds was determined by incubation in the presence of serial dilutions of the compound. The 50% effective concentration (EC50) was calculated by using the exponential form of the median effect equation where (Fa)=1/[1+(ED50/drug conc.)^m](Johnson V A, Byington R T. Infectivity Assay. In Techniques in HIV Research. ed. Aldovini A, Walker B D. 71-76. New York: Stockton Press. 1990). Activity equal to A refers to a compound having an EC50≤100 nM, while B and C denote compounds having an EC50 between 100 nM and 1 uM (B) or >1 uM (C).
A general note: Reporter assays use an easily measured gene product as a stand-in for the process of interest.
Consider `Cc1nc(C)c([C@H](OC(C)(C)C)C(=O)O)c(N2CCC(C)(C)CC2)c1-c1ccc2c(c1)CCN(c1ncncc1F)C2` [Compound 25], for which the EC50 was less than 0.1 µM. On to `Cc1nc(C)c([C@H](OC(C)(C)C)C(=O)O)c(N2CCC(C)(C)CC2)c1-c1ccc2c(c1)CCN(c1nccc(C#N)n1)C2` [Compound 26], for which the EC50 was less than 0.1 µM.

For `Cc1nc(C)c([C@H](OC(C)(C)C)C(=O)O)c(N2CCC(C)(C)CC2)c1-c1ccc2c(c1)CCN(c1cc(Cl)ncn1)C2` [Compound 27], the EC50 is less than 0.1 µM. For the molecule `Cc1nc(C)c([C@H](OC(C)(C)C)C(=O)O)c(N2CCC(C)(C)CC2)c1-c1ccc2c(c1)CCN(c1cc(Cl)cnn1)C2` [Compound 28], the EC50 is less than 0.1 µM. The same measure, in the same setting: next, `Cc1cc(N2CCc3cc(-c4c(C)nc(C)c([C@H](OC(C)(C)C)C(=O)O)c4N4CCC(C)(C)CC4)ccc3C2)nc(C)n1` [Compound 29]: less than 0.1 µM; `Cc1ccnc(N2CCc3cc(-c4c(C)nc(C)c([C@H](OC(C)(C)C)C(=O)O)c4N4CCC(C)(C)CC4)ccc3C2)n1` [Compound 30]: less than 0.1 µM; `COc1cc(N2CCc3cc(-c4c(C)nc(C)c([C@H](OC(C)(C)C)C(=O)O)c4N4CCC(C)(C)CC4)ccc3C2)ncn1` [Compound 31]: less than 0.1 µM. For the molecule `CCc1ccnc(N2CCc3cc(-c4c(C)nc(C)c([C@H](OC(C)(C)C)C(=O)O)c4N4CCC(C)(C)CC4)ccc3C2)n1` [Compound 32], the EC50 is less than 0.1 µM. `CCc1cnc(N2CCc3cc(-c4c(C)nc(C)c([C@H](OC(C)(C)C)C(=O)O)c4N4CCC(C)(C)CC4)ccc3C2)nc1` [Compound 33]: the EC50 is less than 0.1 µM. Turning to `COc1cnc(N2CCc3cc(-c4c(C)nc(C)c([C@H](OC(C)(C)C)C(=O)O)c4N4CCC(C)(C)CC4)ccc3C2)nc1` [Compound 34], the EC50 was less than 0.1 µM. `Cc1nc(C)c([C@H](OC(C)(C)C)C(=O)O)c(N2CCC(C)(C)CC2)c1-c1ccc2c(c1)CCN(c1ccc(C(F)(F)F)nn1)C2` [Compound 35]: the EC50 was less than 0.1 µM. Consider `CNc1nccc(N2CCc3cc(-c4c(C)nc(C)c([C@H](OC(C)(C)C)C(=O)O)c4N4CCC(C)(C)CC4)ccc3C2)n1` [Compound 36], for which the EC50 is less than 0.1 µM. With `Cc1nc(C)c([C@H](OC(C)(C)C)C(=O)O)c(N2CCC(C)(C)CC2)c1-c1ccc2c(c1)CCN(c1nc(N3CCOCC3)nc(N3CCOCC3)n1)C2` [Compound 37], the EC50 was less than 0.1 µM.

For the molecule `Cc1nc(C)c([C@H](OC(C)(C)C)C(=O)O)c(N2CCC(C)(C)CC2)c1-c1ccc2c(c1)CCN(c1ncncc1-c1ccccc1)C2` [Compound 38], the EC50 was less than 0.1 µM.

For the molecule `CSc1nccc(N2CCc3cc(-c4c(C)nc(C)c([C@H](OC(C)(C)C)C(=O)O)c4N4CCC(C)(C)CC4)ccc3C2)n1` [Compound 39], the EC50 is less than 0.1 µM. As to `COc1nccc(N2CCc3cc(-c4c(C)nc(C)c([C@H](OC(C)(C)C)C(=O)O)c4N4CCC(C)(C)CC4)ccc3C2)n1` [Compound 40], the EC50 was less than 0.1 µM. Regarding `Cc1nccc(N2CCc3cc(-c4c(C)nc(C)c([C@H](OC(C)(C)C)C(=O)O)c4N4CCC(C)(C)CC4)ccc3C2)n1` [Compound 41], the EC50 was less than 0.1 µM. In the case of `Cc1nc(C)c([C@H](OC(C)(C)C)C(=O)O)c(N2CCC(C)(C)CC2)c1-c1ccc2c(c1)CCN(c1cc(N)ncn1)C2` [Compound 42], the EC50 was less than 0.1 µM. Turning to `Cc1nc(C)c([C@H](OC(C)(C)C)C(=O)O)c(N2CCC(C)(C)CC2)c1-c1ccc2c(c1)CCN(c1cc(C3CC3)ncn1)C2` [Compound 43], the EC50 is less than 0.1 µM. Consider `Cc1cc(N2CCc3cc(-c4c(C)nc(C)c([C@H](OC(C)(C)C)C(=O)O)c4N4CCC(C)(C)CC4)ccc3C2)nc(C(C)C)n1` [Compound 44], for which the EC50 is less than 0.1 µM. Take `Cc1nc(C)c([C@H](OC(C)(C)C)C(=O)O)c(N2CCC(C)(C)CC2)c1-c1ccc2c(c1)CCN(c1ccccn1)C2` [Compound 46]: the EC50 was less than 0.1 µM. Regarding `COc1ccc(N2CCc3cc(-c4c(C)nc(C)c([C@H](OC(C)(C)C)C(=O)O)c4N4CCC(C)(C)CC4)ccc3C2)nn1` [Compound 47], the EC50 was less than 0.1 µM. With `Cc1nc(C)c([C@H](OC(C)(C)C)C(=O)O)c(N2CCC(C)(C)CC2)c1-c1ccc2c(c1)CCN(c1cc(N3CCCC3)ncn1)C2` [Compound 48], the EC50 was less than 0.1 µM. Still for that read-out and setting: the result for `Cc1nc(C)c([C@H](OC(C)(C)C)C(=O)O)c(N2CCC(C)(C)CC2)c1-c1ccc2c(c1)CCN(c1cc(-n3ccnc3)ncn1)C2` [Compound 49] reads less than 0.1 µM; that for `COc1ncnc(N2CCc3cc(-c4c(C)nc(C)c([C@H](OC(C)(C)C)C(=O)O)c4N4CCC(C)(C)CC4)ccc3C2)c1C` [Compound 50], less than 0.1 µM. In the case of `COCc1cc(N2CCc3cc(-c4c(C)nc(C)c([C@H](OC(C)(C)C)C(=O)O)c4N4CCC(C)(C)CC4)ccc3C2)ncn1` [Compound 51], the EC50 is less than 0.1 µM.

For `Cc1nc(C)c([C@H](OC(C)(C)C)C(=O)O)c(N2CCC(C)(C)CC2)c1-c1ccc2c(c1)CCN(c1ncnc3c1CCC3)C2` [Compound 52], the EC50 is less than 0.1 µM. The same measure, in the same setting: the result for `Cc1nc(C)c([C@H](OC(C)(C)C)C(=O)O)c(N2CCC(C)(C)CC2)c1-c1ccc2c(c1)CCN(c1cc(Nc3ccccc3)ncn1)C2` [Compound 53] reads less than 0.1 µM; that for `Cc1nc(C)c([C@H](OC(C)(C)C)C(=O)O)c(N2CCC(C)(C)CC2)c1-c1ccc2c(c1)CCN(c1ncnc(Cl)c1N)C2` [Compound 54], less than 0.1 µM; that for `Cc1nc(C)c([C@H](OC(C)(C)C)C(=O)O)c(N2CCC(C)(C)CC2)c1-c1ccc2c(c1)CCN(c1ncnc(N)c1C)C2` [Compound 55], less than 0.1 µM. As to `COc1cc(N2CCc3cc(-c4c(C)nc(C)c([C@H](OC(C)(C)C)C(=O)O)c4N4CCC(C)(C)CC4)ccc3C2)nc(N)n1` [Compound 56], the EC50 is less than 0.1 µM. Consider `COc1cnc(SC)nc1N1CCc2cc(-c3c(C)nc(C)c([C@H](OC(C)(C)C)C(=O)O)c3N3CCC(C)(C)CC3)ccc2C1` [Compound 57], for which the EC50 was less than 0.1 µM. Turning to `Cc1nc(C(F)(F)F)nc(N2CCc3cc(-c4c(C)nc(C)c([C@H](OC(C)(C)C)C(=O)O)c4N4CCC(C)(C)CC4)ccc3C2)c1C` [Compound 58], the EC50 is less than 0.1 µM. Still for that read-out and setting: next, `Cc1nc(C)c([C@H](OC(C)(C)C)C(=O)O)c(N2CCC(C)(C)CC2)c1-c1ccc2c(c1)CCN(c1ccnc(C3CC3)n1)C2` [Compound 59]: less than 0.1 µM; `Cc1nc(C)c([C@H](OC(C)(C)C)C(=O)O)c(N2CCC(C)(C)CC2)c1-c1ccc2c(c1)CCN(c1ccnc(C(F)(F)F)n1)C2` [Compound 60]: less than 0.1 µM; `Cc1cc(N2CCc3cc(-c4c(C)nc(C)c([C@H](OC(C)(C)C)C(=O)O)c4N4CCC(C)(C)CC4)ccc3C2)nc(N)n1` [Compound 61]: less than 0.1 µM. The same measure, in the same setting: next, `COc1cc(N2CCc3cc(-c4c(C)nc(C)c([C@H](OC(C)(C)C)C(=O)O)c4N4CCC(C)(C)CC4)ccc3C2)nc(SC)n1` [Compound 62]: less than 0.1 µM. As to `CSc1nc(N2CCc3cc(-c4c(C)nc(C)c([C@H](OC(C)(C)C)C(=O)O)c4N4CCC(C)(C)CC4)ccc3C2)cc(C(F)(F)F)n1` [Compound 63], the EC50 is less than 0.1 µM. On to `Cc1nc(NC(C)(C)C)cc(N2CCc3cc(-c4c(C)nc(C)c([C@H](OC(C)(C)C)C(=O)O)c4N4CCC(C)(C)CC4)ccc3C2)n1` [Compound 64], for which the EC50 is less than 0.1 µM. For `Cc1nc(O)cc(N2CCc3cc(-c4c(C)nc(C)c([C@H](OC(C)(C)C)C(=O)O)c4N4CCC(C)(C)CC4)ccc3C2)n1` [Compound 65], the EC50 was 0.1 to 1 µM. As for `Cc1nc(C)c([C@H](OC(C)(C)C)C(=O)O)c(N2CCC(C)(C)CC2)c1-c1ccc2c(c1)CCN(c1cc(O)nc(N)n1)C2` [Compound 66], the EC50 fell in the range of 0.1 to 1 µM. As to `Cc1nc(C)c([C@H](OC(C)(C)C)C(=O)O)c(N2CCC(C)(C)CC2)c1-c1ccc2c(c1)CCN(c1ccnc(N)n1)C2` [Compound 67], the EC50 was less than 0.1 µM. For the molecule `Cc1nc(C)c([C@H](OC(C)(C)C)C(=O)O)c(N2CCC(C)(C)CC2)c1-c1ccc2c(c1)CCN(c1nnc(-c3ccccc3)cc1C#N)C2` [Compound 68], the EC50 was less than 0.1 µM.

In the case of `Cc1cn(-c2ccc(N3CCc4cc(-c5c(C)nc(C)c([C@H](OC(C)(C)C)C(=O)O)c5N5CCC(C)(C)CC5)ccc4C3)nn2)cn1` [Compound 69], the EC50 is less than 0.1 µM.

The same assay, now with this note: Human immunodeficiency virus 1, MT2, 120 h, read-out: EC50 μM.
Take `Cc1cc(N2CCc3cc(-c4c(C)nc(C)c([C@H](OC(C)(C)C)C(=O)O)c4N4CCC(C)(C)CC4)ccc3C2)nc(C)n1` [Compound 29]: the EC50 was 0.004 µM. As for `Cc1nc(C)c([C@H](OC(C)(C)C)C(=O)O)c(N2CCC(C)(C)CC2)c1-c1ccc2c(c1)CCN(c1ccc(C(F)(F)F)nn1)C2` [Compound 35], the EC50 came to 0.01 µM.

In the case of `COc1nccc(N2CCc3cc(-c4c(C)nc(C)c([C@H](OC(C)(C)C)C(=O)O)c4N4CCC(C)(C)CC4)ccc3C2)n1` [Compound 40], the EC50 amounted to 0.002 µM.

Regarding `Cc1nc(C)c([C@H](OC(C)(C)C)C(=O)O)c(N2CCC(C)(C)CC2)c1-c1ccc2c(c1)CCN(c1cc(N3CCCC3)ncn1)C2` [Compound 48], the EC50 was 0.003 µM. Consider `Cc1nc(C)c([C@H](OC(C)(C)C)C(=O)O)c(N2CCC(C)(C)CC2)c1-c1ccc2c(c1)CCN(c1ncnc(N)c1C)C2` [Compound 55], for which the EC50 was found to be 0.004 µM. On the same count and under the same terms, the result for `COc1cc(N2CCc3cc(-c4c(C)nc(C)c([C@H](OC(C)(C)C)C(=O)O)c4N4CCC(C)(C)CC4)ccc3C2)nc(SC)n1` [Compound 62] reads 0.004 µM; that for `Cc1nc(C)c([C@H](OC(C)(C)C)C(=O)O)c(N2CCC(C)(C)CC2)c1-c1ccc2c(c1)CCN(c1cc(O)nc(N)n1)C2` [Compound 66], 0.32 µM; that for `Cc1nc(C)c([C@H](OC(C)(C)C)C(=O)O)c(N2CCC(C)(C)CC2)c1-c1ccc2c(c1)CCN(c1ccc3cnccc3n1)C2` [Compound 70], 0.0005 µM. `Cc1nc(C)c([C@H](OC(C)(C)C)C(=O)O)c(N2CCC(C)(C)CC2)c1-c1ccc2c(c1)CCN(c1cnc3ccccc3n1)C2` [Compound 71]: the EC50 was found to be 0.01 µM.
